Test results reported in patent US9464093B2, “Substituted imidazo[4',5':4,5]cyclopenta[1,2-e]pyrrolo[1,2-a]pyrazines and oxazolo[4',5':4,5]cyclopenta[1,2-e]pyrrolo[1,2-a]pyrazines for treating brain cancer” (Mayo Foundation for Medical Education and Research, priority 2012, dated 2016).
Entries after “also recorded” stand apart in the source; their conditions may differ.

Tests used:
MB-453 = test: Cell proliferation assay MB-453 (Example 6); type: cell-based; conditions: cells counted on the sixth day
Description: (§1) In-vitro assays were performed to assess the cytotoxic impact of AA analogues on breast cancer cell lines (MB-468, MB-453, and T47D), lymphoma cell lines (Raji and OCI-LY10), and glioblastoma multiforme cell line (U87). The three breast cancer cell lines represent three subtypes of breast cancer: triple-negative (MB-468), Her2-positive (MB-453), and hormone receptor positive (T47D).
(§2) The IC50 values obtained for each compound represents the concentration of the tested compound that is needed to decrease the cancer cell count by 50%. Cancer cells were seeded in triplicate at 50,000 cells per well of a 24-well plate in 0.5 ml medium. […] Cells were harvested and counted on the sixth day using a Beckman Coulter counter.

T47D = test: Cell proliferation assay T47D (Example 6); type: cell-based; conditions: Homo sapiens, T47D; cells counted on the sixth day
Description: as §1, §2

[1] = system: DU145 prostate cancer cells; test: Cytotoxicity, MTT method, DU145; conditions: Homo sapiens, DU-145, 24 h, read-out: Cytotoxicity (IC50, μM) DU145
Description: The cell suspension in the culture medium was plated into each well of 96-well plates (10,000 cells/well/100 μL). After 24 h, testing compounds were added, and then the plates were incubated for an additional 24 h in a humidified atmosphere of 5% CO2 at 37° C. […] The IC50 value was determined by linear interpolation from the growth inhibition curve.

U87 cells = test: U87 orthotopic murine model for glioblastoma multiforme; type: in vivo; conditions: for Median Survival (Day) GBM (U-87): control 25.5; for survival (Kaplan-Meier) vs control, U87 model / tumor growth (BLI) vs control, U87 model: all treatment groups (2.5 or 5 mg/kg i.p. daily for 4 days); for tolerability, U87 model: both dose levels (2.5 and 5 mg/kg)
Description: (§3) Female athymic mice (8-10 weeks old and weighing 20-25 g at the beginning of the study) were purchased from Harlan laboratories (Indianapolis, Ind.). They were housed in a temperature-controlled sterilized room (23±2° C.) with a 12-h light/dark cycle and free access to food and water throughout the study.
(§4) Murine brain tumor models were created by intracerebral injection of luciferase-transfected cancer cells in athymic mice under anesthesia using a stereotactic platform. For murine model for CNS lymphoma, 1×10^5 OCI-LY10 B lymphoma cells were used. For murine model for metastatic breast cancer of the brain (MBCB), 1×10^5 MB-468 triple-negative breast cancer cells were used. For murine model for glioblastoma multiforme (GBM), 1.75×10^5 U87 cells were used. Eight-week-old athymic mice underwent a minimum 7-day acclimation/quarantine prior to surgery. Surgery was performed in a laminar flow hood under sterile conditions. Tylenol 300 mg/kg PO was given for analgesia 48 hours before the surgery and continuing 48 hours postoperatively. Anesthesia was achieved by inhalation of 1-2% isoflurane. After the mouse became well anesthetized, it was placed in the Kopf stereotactic instrument. A small amount of BNP antibiotic cream (a mixture of Bacitracin, Neomycin and Polymyxin) was smeared on its eyes to prevent infection and corneal damage during surgery. A strip of soft fabric was placed over the mouse's body and tail to prevent excessive heat loss during surgery. The scalp area was cleaned with a 2% solution of Betadine and dried with cotton tipped applicator. A midline sagittal incision was made in the scalp. A small burr hole was drilled in the left skull with a surgical drill (Kopf) or a Dremel drill according to the coordinates (AP: 0.5 mm, LM: 2.5 mm) as determined by reference to the mouse brain atlas by Franklin and Paxinos. The dura mater was surgically exposed, and a 10 μl Hamilton syringe with a 26S-gauge beveled needle was lowered into the left cerebral hemisphere up to a depth of 3 mm and 5 μl of tumor cells were slowly infused (0.5 μl/min). The needle was left in place for 5 minutes to prevent reflux and then was slowly removed. The skin was closed with wound clips. The mice recovered from anesthesia and surgery in a warm environment and were not returned to their cages until motor activity returned. Cages were placed on top of a heating pad to minimize the loss of body heat during the recovery. The mice were monitored post-operatively at least twice a day for 5 days or until recovery was complete.
(§5) BLI was used to assess the impact of the treatments on the brain tumor growth. After intracerebral injection of cancer cells, all the mice were subjected to bioluminesence imaging (BLI) twice a week starting at day-4 post-intracerebral injection to monitor the real-time in vivo tumor growth. BLI was conducted using a Xenogen Lumina optical imaging system (Caliper Life Sciences, Hopkinton, Mass.). Mice were anesthetized with isofluorane before intraperitoneal injections of luciferin at a dose of 150 mg/kg, providing a saturating substrate concentration for luciferase enzyme. Peak luminescent signals were recorded 10 minutes after luciferin injection. Regions of interest encompassing the intracranial area of signal were defined using Living Image software (Xenogen, Alameda, Calif.), and the total photons/s/steradian/cm2 was recorded.
(§6) Five mice each were assigned to one of seven treatment groups or one vehicle control group for all three brain tumor models. Mice in experimental groups received either 2.5 mg/kg or 5 mg/kg of AA, CEAA, or DCEAA by intraperitoneal route daily for 4 days. For CAA, only 2.5 mg/Kg by intraperitoneal route daily for 4 days was used. The control group received DMSO by intraperitoneal route for 4 days. The end point for the survival analysis was the development of limb paralysis. Animals were checked at least twice per day. Animals that reached the end point were sacrificed by CO2 anesthesia. […]

MB-468 = test: Cell proliferation assay MB-468 (Example 6); type: cell-based; conditions: cells counted on the sixth day
Description: as §1, §2

[2] = system: MB-468 triple-negative breast cancer cells; test: MB-468 orthotopic murine model for metastatic breast cancer of the brain; type: in vivo, athymic mice; conditions: for Median Survival (Day) Breast Cancer (MB-468): control 52; for survival (Kaplan-Meier) vs control, MB-468 model / tumor growth (BLI) vs control, MB-468 model: all treatment groups (2.5 or 5 mg/kg i.p. daily for 4 days); for tolerability, MB-468 model: both dose levels (2.5 and 5 mg/kg)
Description: as §3, §4, §5, §6

[3] = system: Raji B cells (Burkitt's lymphoma cells); test: Cytotoxicity, cell count, Raji (Example 4); conditions: Homo sapiens, Raji, read-out: Cytotoxicity (IC50, μM) Raji
Description: (§7) Raji cells and MB-468 cells were purchased from American Tissue Culture (Manassas, Va.). […] Cells were harvested and counted on the third day in a Coulter Particle Counter (Beckman-Coulter Corp.: Brea, Calif.). IC50 values were calculated using GraphPad Prism 5 (GraphPad Software Inc., La Jolla, Calif.).

[4] = system: OCI-LY10 B lymphoma cells; test: OCI-LY10 orthotopic murine CNS lymphoma model; type: in vivo; conditions: for Median Survival (Day) CNS Lymphoma (OCI-LY10): control 35; for survival (Kaplan-Meier) vs control, OCI-LY10 model / tumor growth (BLI) vs control, OCI-LY10 model: all treatment groups (2.5 or 5 mg/kg i.p. daily for 4 days); for tolerability, OCI-LY10 model: both dose levels (2.5 and 5 mg/kg)
Description: as §3, §4, §5, §6

OCI-LY10 = test: Cell proliferation assay OCI-LY10 (Example 6); type: cell-based; conditions: Homo sapiens, OCI-Ly10; cells counted on the sixth day
Description: as §1, §2

U87 = test: Cell proliferation assay U87 (Example 6); type: cell-based; conditions: Homo sapiens, U-87 MG; cells counted on the sixth day
Description: as §1, §2

[5] = system: MB-468 (triple-negative breast cancer cells); test: Cytotoxicity, cell count, MB-468 (Example 4); conditions: read-out: Cytotoxicity (IC50, μM) MB-468
Description: as §7

Raji = test: Cell proliferation assay Raji (Example 6); type: cell-based; conditions: Homo sapiens, Raji; cells counted on the sixth day
Description: as §1, §2

[6] = 2.5 mg/kg intraperitoneal daily for 4 days
[7] = 5 mg/kg intraperitoneal daily for 4 days

SMILES | IC50 (MB-453) [nM] | IC50 (T47D) [nM] | IC50 [1] [µM] | Median Survival (Day) GBM (U-87) (U87 cells; [6]) [days] | Median Survival (Day) GBM (U-87) (U87 cells; [7]) [days] | survival (Kaplan-Meier) vs control, U87 model (U87 cells) | tumor growth (BLI) vs control, U87 model (U87 cells) | tolerability, U87 model (U87 cells) | IC50 (MB-468) [nM] | Median Survival (Day) Breast Cancer (MB-468) [2, 6] [days] | Median Survival (Day) Breast Cancer (MB-468) [2, 7] [days] | survival (Kaplan-Meier) vs control, MB-468 model [2] | tumor growth (BLI) vs control, MB-468 model [2] | tolerability, MB-468 model [2] | IC50 [3] [µM] | Median Survival (Day) CNS Lymphoma (OCI-LY10) [4, 6] [days] | Median Survival (Day) CNS Lymphoma (OCI-LY10) [4, 7] [days] | survival (Kaplan-Meier) vs control, OCI-LY10 model [4] | tumor growth (BLI) vs control, OCI-LY10 model [4] | tolerability, OCI-LY10 model [4] | also measured
CCN1C(=O)N[C@H]2[C@@H]3NC(=O)c4ccc(Cl)n4[C@@H]3C[C@]21O [CEAA, chloroethylagelastatin A] | 141 | 20.7 | 2.6 | 29 | 31 | significantly prolonged survival; also recorded: prolongation of survival | significantly decreased tumor growth; also recorded: significantly slower | well tolerated | 277 | 56 | 64 | significantly prolonged survival; also recorded: prolongation of survival | significantly decreased tumor growth; also recorded: significantly slower | well tolerated | 0.3 | 57 | 65 | significantly prolonged survival; also recorded: prolongation of survival | significantly decreased tumor growth; also recorded: significantly slower | well tolerated | IC50 (OCI-LY10): 119 nM; IC50 (U87): 109 nM; IC50 [5]: 0.28 µM; IC50 (Raji): 296 nM
CCN1C(=O)N[C@H]2[C@@H]3NC(=O)c4cc(Cl)c(Cl)n4[C@@H]3C[C@]21O [DCEAA, dichloroethylagelastatin A] | 104 | 101 | 1.4 | 30 | 34 | significantly prolonged survival; also recorded: prolongation of survival | significantly decreased tumor growth; also recorded: significantly slower | well tolerated | 444 | 61 | 75 | significantly prolonged survival; also recorded: prolongation of survival | significantly decreased tumor growth; also recorded: significantly slower | well tolerated | 0.62 | 60 | 69 | significantly prolonged survival; also recorded: prolongation of survival | significantly decreased tumor growth; also recorded: significantly slower | well tolerated | IC50 (OCI-LY10): 429 nM; IC50 (U87): 256 nM; IC50 [5]: 0.44 µM; IC50 (Raji): 619 nM
